tested on: Pseudomonas fluorescens FW300-N2E2; details: medium / electron acceptor: N2E2 KB/aerobic
Summary of the method: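 Growth was read as OD600 at 24 h, or at 48 h for R2A strain comparisons, after washed cells at a final OD600 of 0.02 (80 µL) were added to 384-well plates holding serially diluted inorganic ion salts or equimolar nitrilotriacetic acid complexes. Aerobic plates were shaken at 700 rpm at 30 °C, but anaerobic plates were not. IC50 was calculated with the drc R package from at least two biological replicate curves, scaled between water and growth-blocking antibiotic controls and excluding wells with precipitate.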

Structure (SMILES)	IC50 growth inhibition
[K+].[OH-].[OH-].[OH-].[OH-].[OH-].[OH-].[Sb+3] [potassium hexahydroxoantimonate]	4980 µM
O.O=[Te](=O)([O-])[O-].[K+].[K+] [potassium tellurate hydrate]	> 500 µM
[Cl-].[Rb+] [rubidium chloride]	349000 µM
[Cl][Ag] [silver chloride]	> 500 µM
[Br-].[Na+] [sodium bromide]	354000 µM
[F-].[Na+] [sodium fluoride]	322 µM
[O-][I+2]([O-])O [sodium iodate]	3530 µM
[I-].[Na+] [sodium iodide]	304000 µM
O=S([O-])[O-].[Na+].[Na+] [sodium sulfite]	< 244 µM
OB1OB2OB(O)OB(O1)O2 [sodium tetraborate decahydrate]	> 5000 µM

same assay, conditions: medium / electron acceptor: N2E2 LB/aerobic

Structure (SMILES)	IC50 growth inhibition
[Cl-].[Cl-].[Sr+2] [Strontium chloride]	27700 µM
CC(=O)[O-].[Tl+] [Thallium(I) acetate]	< 2.44 µM
[Cl-].[Cl-].[Zn+2] [Zinc chloride]	2620 µM
O.O.O.O.O=S(=O)([O-])[O-].[Be+2] [beryllium sulfate tetrahydrate]	1610 µM
[Cl][Bi]([Cl])[Cl] [bismuth(III) chloride]	72.7 µM
O.O.[Cl][Cu][Cl] [copper (II) chloride dihydrate]	> 5000 µM
O.[Au+3].[Cl-].[Cl-].[Cl-] [gold (III) chloride hydrate]	< 0.244 µM
[Cl][Pb][Cl] [lead (II) chloride]	> 5000 µM
[Cl][Hg][Cl] [mercury (II) chloride]	< 2.44 µM
[Cl][Pt]([Cl])([Cl])[Cl] [platinum (IV) chloride]	172 µM
[K+].[OH-].[OH-].[OH-].[OH-].[OH-].[OH-].[Sb+3] [potassium hexahydroxoantimonate]	> 5000 µM
O.O=[Te](=O)([O-])[O-].[K+].[K+] [potassium tellurate hydrate]	> 500 µM
[Cl-].[Rb+] [rubidium chloride]	387000 µM
[Cl][Ag] [silver chloride]	> 500 µM
[Br-].[Na+] [sodium bromide]	354000 µM
[F-].[Na+] [sodium fluoride]	1110 µM
[O-][I+2]([O-])O [sodium iodate]	8490 µM
[I-].[Na+] [sodium iodide]	330000 µM
O=S([O-])[O-].[Na+].[Na+] [sodium sulfite]	7580 µM
OB1OB2OB(O)OB(O1)O2 [sodium tetraborate decahydrate]	> 5000 µM

same assay, conditions: medium / electron acceptor: N2E2 LB/aerobic (2)

Structure (SMILES)	IC50 growth inhibition
[Cl-].[Cl-].[Sr+2] [Strontium chloride]	17200 µM
CC(=O)[O-].[Tl+] [Thallium(I) acetate]	< 2.44 µM
[Cl-].[Cl-].[Zn+2] [Zinc chloride]	2550 µM
O.O.O.O.O=S(=O)([O-])[O-].[Be+2] [beryllium sulfate tetrahydrate]	< 244 µM
[Cl][Bi]([Cl])[Cl] [bismuth(III) chloride]	103 µM
O.O.[Cl][Cu][Cl] [copper (II) chloride dihydrate]	> 5000 µM
O.[Au+3].[Cl-].[Cl-].[Cl-] [gold (III) chloride hydrate]	< 0.244 µM
[Cl][Pb][Cl] [lead (II) chloride]	> 5000 µM
[Cl][Hg][Cl] [mercury (II) chloride]	< 2.44 µM
[Cl][Pt]([Cl])([Cl])[Cl] [platinum (IV) chloride]	66.1 µM
[K+].[OH-].[OH-].[OH-].[OH-].[OH-].[OH-].[Sb+3] [potassium hexahydroxoantimonate]	4820 µM
O.O=[Te](=O)([O-])[O-].[K+].[K+] [potassium tellurate hydrate]	377 µM
[Cl-].[Rb+] [rubidium chloride]	384000 µM
[Cl][Ag] [silver chloride]	> 500 µM
[Br-].[Na+] [sodium bromide]	354000 µM
[F-].[Na+] [sodium fluoride]	1100 µM
[O-][I+2]([O-])O [sodium iodate]	12400 µM
[I-].[Na+] [sodium iodide]	354000 µM
O=S([O-])[O-].[Na+].[Na+] [sodium sulfite]	1700 µM
OB1OB2OB(O)OB(O1)O2 [sodium tetraborate decahydrate]	> 5000 µM

same assay, conditions: medium / electron acceptor: N2E2 LB/nitrate

Structure (SMILES)	IC50 growth inhibition
[Cl-].[Cl-].[Sr+2] [Strontium chloride]	12800 µM
CC(=O)[O-].[Tl+] [Thallium(I) acetate]	< 2.44 µM
[Cl-].[Cl-].[Zn+2] [Zinc chloride]	580 µM
O.O.O.O.O=S(=O)([O-])[O-].[Be+2] [beryllium sulfate tetrahydrate]	91900 µM
[Cl][Bi]([Cl])[Cl] [bismuth(III) chloride]	6.03 µM
O.O.[Cl][Cu][Cl] [copper (II) chloride dihydrate]	> 5000 µM
O.[Au+3].[Cl-].[Cl-].[Cl-] [gold (III) chloride hydrate]	< 0.244 µM
[Cl][Pb][Cl] [lead (II) chloride]	> 5000 µM
[Cl][Hg][Cl] [mercury (II) chloride]	< 2.44 µM
[Cl][Pt]([Cl])([Cl])[Cl] [platinum (IV) chloride]	32.9 µM
[K+].[OH-].[OH-].[OH-].[OH-].[OH-].[OH-].[Sb+3] [potassium hexahydroxoantimonate]	3080 µM
O.O=[Te](=O)([O-])[O-].[K+].[K+] [potassium tellurate hydrate]	84.5 µM
[Cl-].[Rb+] [rubidium chloride]	284000 µM
[Cl][Ag] [silver chloride]	> 500 µM
[Br-].[Na+] [sodium bromide]	303000 µM
[F-].[Na+] [sodium fluoride]	497 µM
[O-][I+2]([O-])O [sodium iodate]	208 µM
[I-].[Na+] [sodium iodide]	125000 µM
O=S([O-])[O-].[Na+].[Na+] [sodium sulfite]	1120 µM
OB1OB2OB(O)OB(O1)O2 [sodium tetraborate decahydrate]	3160 µM

same assay, conditions: medium / electron acceptor: N2E2 Lactate/aerobic

Structure (SMILES)	IC50 growth inhibition
[Cl-].[Cl-].[Sr+2] [Strontium chloride]	< 244 µM
CC(=O)[O-].[Tl+] [Thallium(I) acetate]	< 2.44 µM
[Cl-].[Cl-].[Zn+2] [Zinc chloride]	< 2.44 µM
O.O.O.O.O=S(=O)([O-])[O-].[Be+2] [beryllium sulfate tetrahydrate]	4800 µM
[Cl][Bi]([Cl])[Cl] [bismuth(III) chloride]	7.86 µM
O.O.[Cl][Cu][Cl] [copper (II) chloride dihydrate]	76.7 µM
O.[Au+3].[Cl-].[Cl-].[Cl-] [gold (III) chloride hydrate]	0.257 µM
[Cl][Pb][Cl] [lead (II) chloride]	> 5000 µM
[Cl][Hg][Cl] [mercury (II) chloride]	< 2.44 µM
[Cl][Pt]([Cl])([Cl])[Cl] [platinum (IV) chloride]	418 µM
[K+].[OH-].[OH-].[OH-].[OH-].[OH-].[OH-].[Sb+3] [potassium hexahydroxoantimonate]	> 5000 µM
O.O=[Te](=O)([O-])[O-].[K+].[K+] [potassium tellurate hydrate]	354 µM
[Cl-].[Rb+] [rubidium chloride]	168000 µM
[Cl][Ag] [silver chloride]	154 µM
[Br-].[Na+] [sodium bromide]	378000 µM
[F-].[Na+] [sodium fluoride]	477 µM
[O-][I+2]([O-])O [sodium iodate]	5410 µM
[I-].[Na+] [sodium iodide]	124000 µM
O=S([O-])[O-].[Na+].[Na+] [sodium sulfite]	< 244 µM
OB1OB2OB(O)OB(O1)O2 [sodium tetraborate decahydrate]	> 5000 µM

same assay, conditions: medium / electron acceptor: N2E2 R2A/aerobic

Structure (SMILES)	IC50 growth inhibition
[Cl-].[Cl-].[Sr+2] [Strontium chloride]	261000 µM
CC(=O)[O-].[Tl+] [Thallium(I) acetate]	< 2.44 µM
[Cl-].[Cl-].[Zn+2] [Zinc chloride]	70.4 µM
O.O.O.O.O=S(=O)([O-])[O-].[Be+2] [beryllium sulfate tetrahydrate]	> 500000 µM
[Cl][Bi]([Cl])[Cl] [bismuth(III) chloride]	4.01 µM
O.O.[Cl][Cu][Cl] [copper (II) chloride dihydrate]	525 µM
O.[Au+3].[Cl-].[Cl-].[Cl-] [gold (III) chloride hydrate]	< 0.244 µM
[Cl][Pb][Cl] [lead (II) chloride]	140 µM
[Cl][Hg][Cl] [mercury (II) chloride]	< 2.44 µM
[Cl][Pt]([Cl])([Cl])[Cl] [platinum (IV) chloride]	86.1 µM
[K+].[OH-].[OH-].[OH-].[OH-].[OH-].[OH-].[Sb+3] [potassium hexahydroxoantimonate]	> 5000 µM
O.O=[Te](=O)([O-])[O-].[K+].[K+] [potassium tellurate hydrate]	> 500 µM
[Cl-].[Rb+] [rubidium chloride]	> 500000 µM
[Cl][Ag] [silver chloride]	> 500 µM
[Br-].[Na+] [sodium bromide]	448000 µM
[F-].[Na+] [sodium fluoride]	2900 µM
[O-][I+2]([O-])O [sodium iodate]	7770 µM
[I-].[Na+] [sodium iodide]	237000 µM
O=S([O-])[O-].[Na+].[Na+] [sodium sulfite]	31700 µM
OB1OB2OB(O)OB(O1)O2 [sodium tetraborate decahydrate]	> 5000 µM
